One assay relates to Aβ42. As to the kind of experiment: CSF levels of Aβ42 (sandwich ELISA) before and after 4 weeks of treatment, clinical phase II trial. The assay is classed as in vivo, human. How it is done:
(§1) To test whether this effect also occurs in humans, talsaclidine or placebo were administered to 40 patients with clinical diagnosis of probable senile dementia of Alzheimer-type and measured cerebrospinal fluid (CSF) levels of Aβ40 and Aβ42 before and at the end of 4 weeks of treatment. To control for specificity, CSF levels of both total tau and phosphorylated tau were also measured.
(§2) Diagnosis of probable Alzheimer's disease was made according to the National Institute of Neurological and Communicative Disorders and Stroke-Alzheimer's Disease and Related Disorders Association (NINCDS-ADRDA) as well as ICD10 criteria. All patients were community-dwelling and were referred to the participating dementia clinics from general practitioners, neurologists, and psychiatrists. All patients gave their informed consent and were screened for participation in a clinical phase II trial in accordance with GCP and ICH guidelines. The clinical phase II trial was designed to test the safety and tolerability of talsaclidine. CSF measurements were performed within a scientific add-on protocol and additional separate informed consent to the multicenter clinical trial.
Patients were carefully examined and received a thorough clinical work-up. Psychometric testing included the Mini Mental State Examination (MMSE) as a global screening instrument for dementia, the Alzheimer's Disease Assessment Scale, cognitive part (ADAScog), the Clinical Global Impression (CGI) and the Behavioral Pathology in AD (BEHAVE-AD). There were 40 participants in the study with two CSF samples each. Among the inclusion criteria were age below 85 years, MMSE between 12 and 28, and the absence of relevant systemic disorders.
Talsaclidine was given, in a randomized, double-blind design, three times per day (t.i.d) in a constant dosage with increasing dose panels. Both capsules or tablets of different dose strength were applied. The specific formulations used are outlined in detail below.
The aforementioned pharmaceutical compositions were administered twice daily or three times per day to the patients. The following dosings were applied: 4.5 mg talsaclidine (n=5 patients); 9 mg (n=4); 18 mg (n=4); 36 mg (n=4); 72 mg (n=4); 96 mg (n=4); 108 mg (n=4); 120 mg (n=2); 144 mg (n=3); and placebo (n=6).
Within one week of dementia testing and before treatment, CFS was obtained by lumbar puncture according to conventional techniques. CFS samples were frozen on dry ice immediately upon withdrawal at the bedside in 0.5 ml aliquots and stored at −85° C. until biochemical analyses. A second lumbar puncture was done after four weeks of treatment and the CFS obtained was processed identically to the initial lumbar puncture. All available CFS samples were included in the analyses.
Sandwich ELISA was performed by using precoated plates (INNOTEST β-Amyloid 1-42, 8-well strips; Innogenetics, Belgium) with the capture antibody 21F12 (Innogenetics, Belgium). The capture 21F12 is specific for the free carboxyl terminus of Aβ42 (peptide sequence Aβ33-42). After washing (5×, room temperature), biotinylated antibody 6E10 at […] concentration in blocking buffer (50 mM Tris-HCl pH 7.5; 140 mM NaCl; 5 mM EDTA; 0.05% NP40; 0.25% gelatine; 1% BSA) was added. Each assay plate included a standard curve with highly purified Aβ42. After color development with TMP and Vectastain ABC detection (streptavidin-peroxidase complex, Vectastain Elite ABC Kit), absorbance was read at 450 nm. The linear range of the assay was 30 pg/ml to 5 ng/ml. There was no cross reactivity in either assay with Aβ42 or Aβ40.
Statistical analyses of data were done by Wilcoxon signed-rank tests for paired samples as well as by the Mann-Whitney U test for group comparisons. Bonferroni correction for multiple testing was performed. Analyses of covariates were used to test whether changes correlated with age, gender, or dementia severity.

Another assay deals with tau protein. In words: CSF levels of tau (sandwich ELISA) before and after 4 weeks of treatment, clinical phase II trial. The settings on record: patients. The assay is classed as in vivo, human. As for the experimental part:
as §1, §2
Patients were carefully examined and received a thorough clinical work-up. […]
The monoclonal antibody AT120 that reacts with both normal and HPF-tau was used in a sensitive sandwich ELISA (Innogenetics, Belgium). […] Absorbance was read at 450 nm. […]

For a further assay, the system named is Aβ formation. Particulars: cell culture and brain slice models; background statement; cited from earlier work.
The test system of the next assay is Aβ40. As to the kind of experiment: CSF levels of Aβ40 (sandwich ELISA) before and after 4 weeks of treatment, clinical phase II trial. The assay is classed as in vivo, human. As for the experimental part:
as §1
as §2, with “CSF measurements were performed within a scientific add-on protocol and additional separate informed consent to the multicenter clinical trial.” left out
Sandwich ELISA was performed with the capture antibody 6E10 (Senetek, Maryland Heights, Mo.). […] After color development with 3,5,3′,5′-tetramethylbenzidine (TMB) and hydrogen peroxide, absorbance was read at 450 nm on a microplate reader (Victor2 Multilabel, EG&G® Wallac). […]

[1] abbreviates: dosings 4.5 to 144 mg talsaclidine, four weeks.
[2] abbreviates: patients treated with talsaclidine, four weeks.

Consider `C#CCOC1CN2CCC1CC2` (stereo not drawn) [talsaclidine], for which the “dose dependence of the decrease of CSF levels of Aβ42” value with Aβ42 (setting [1]) is “not dose dependently”. Further, in the assay with Aβ42 (setting [2]), the “patients in whom CSF levels of Aβ42 decreased” value was 65%, the “patients in whom CSF levels of Aβ42 did not change” value is reported as 15% and the “patients in whom CSF levels of Aβ42 increased” value was found to be 20%. For the same compound, in the assay with Aβ42 (patients with probable Alzheimer's disease, talsaclidine group n=34, starting value ('decreased from'), value after four weeks not given), the “mean CSF levels of Aβ42 (mean±SD)” value was 0.126 ± 0.073 ng/mL. Further, in the assay with Aβ42 (patients, four weeks of treatment, n=34, significant), the “decrease of CSF levels of Aβ42 over time within the treatment group, median” value amounted to 17%. Further, the “decrease of CSF levels of Aβ42 compared to placebo, median” value in the assay with Aβ42 (patients, four weeks of treatment, talsaclidine n=34 vs placebo n=6, significant) was found to be 23%. The “dose dependence of change of CSF tau” value in the assay with tau protein (n=34, dosings 4.5 to 144 mg talsaclidine, four weeks) is reported as “decreased dose dependently”. Further, the “CSF tau in total in comparison to placebo” value in the assay with tau protein (n=34, four weeks of treatment) was “did not decrease in total in comparison to placebo”. Moreover, in the assay with Aβ formation, the Aβ formation result was “lowers Aβ formation”. Further, in the assay on Aβ40 (setting [1]), the “dose dependence of change of CSF levels of Aβ40” value is given as “decreased dose dependently”. Further, the “CSF levels of Aβ40 in total in comparison to placebo” value in the assay with Aβ40 (patients, four weeks of treatment) is listed as “did not increase in total in comparison to placebo”.

The values above are taken from patent publication US6573276B2, “Muscarinic M1 agonist as an inhibitor of beta-amyloid (Aβ40 and Aβ42)-synthesis” (Boehringer Ingelheim Pharma KG, priority 2001, dated 2003).
